Consider 11 compounds from ChEMBL document CHEMBL4177573 (Bioorg Med Chem, 2017).

Series [1] concerns the target T1, Neuropeptide Y receptor type 2 (Homo sapiens, UniProt P49146).
T1 sequence (P49146 whole entry): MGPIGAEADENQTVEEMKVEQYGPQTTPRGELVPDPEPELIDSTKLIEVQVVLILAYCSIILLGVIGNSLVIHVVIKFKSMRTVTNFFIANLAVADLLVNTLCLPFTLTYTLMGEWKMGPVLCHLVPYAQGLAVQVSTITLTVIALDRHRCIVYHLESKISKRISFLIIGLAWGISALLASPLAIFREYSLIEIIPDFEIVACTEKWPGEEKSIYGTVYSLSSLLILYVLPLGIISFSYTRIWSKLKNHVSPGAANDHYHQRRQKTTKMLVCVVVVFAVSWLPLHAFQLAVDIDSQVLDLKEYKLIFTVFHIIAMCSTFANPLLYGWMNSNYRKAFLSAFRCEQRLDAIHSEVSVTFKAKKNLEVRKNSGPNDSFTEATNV
As to the kind of experiment: Agonist activity at human neuropeptide Y2 receptor expressed in CHO cell membranes assessed as stimulation of [35S]GTPgammaS binding incubated for 120 mins by liquid scintillation counting method. The class given is functional. (Binding of GTPγS marks nucleotide exchange on a G protein.)

In series [2] the target is T1, Neuropeptide Y receptor type 2. As to the kind of experiment: Displacement of [125I]-PYY from human neuropeptide Y2 receptor expressed in CHO cell membranes incubated for 60 mins by TopCount based method. For orientation: Loss of bound radioactivity is the signal in a displacement assay; it reports binding, not function.
In series [3] the test system is Mus musculus. As to the kind of experiment: Anorectic activity in C57BL/6J mouse assessed as inhibition of food intake at 1 mg/kg/day, sc for 3 days dosed as continuous administration by infusion using osmotic pump. In kind it is functional. The note with it: 72 h.
In series [4] the test system is Mus musculus. Description: Anorectic activity in C57BL/6J mouse assessed as inhibition of food intake at 0.03 mg/kg/day, sc for 3 days dosed as continuous administration by infusion using osmotic pump. The class given is functional. The note with it: 72 h.
The subject of series [5] is Mus musculus. Description: Anorectic activity in C57BL/6J mouse assessed as inhibition of food intake at 0.1 mg/kg/day, sc for 3 days dosed as continuous administration by infusion using osmotic pump. The class given is functional. The note with it: 72 h.
Series [6] deals with Mus musculus. Description: Anorectic activity in C57BL/6J mouse assessed as inhibition of food intake at 0.3 mg/kg/day, sc for 3 days dosed as continuous administration by infusion using osmotic pump. The class given is functional. The note with it: 72 h.
Series [7] has as its system Mus musculus. Description: Anorectic activity in C57BL/6J mouse assessed as inhibition of food intake at 0.3 mg/kg/day, sc dosed as […] and measured after 12 hrs. The class given is functional.
In series [8] the test system is Mus musculus. As to the kind of experiment: Anorectic activity in C57BL/6J mouse assessed as inhibition of food intake at 0.3 mg/kg/day, sc dosed as […] and measured after 24 hrs. The class given is functional.
Series [9] has as its system Mus musculus. As to the kind of experiment: Drug level in C57BL/6J mouse at 1 mg/kg, iv measured during 5 mins to 24 hrs by LC/MS/MS method. In kind it is ADME, organism-based. The following applies: in vivo, read-out: Drug uptake.

By EC50 is commonly meant the concentration at which the effect is half-maximal. The term IC50 denotes the concentration needed to halve the response being measured. High values mean weaker potency in that assay, low ones greater potency in that assay. A word on the inhibition in vivo: it is the change of the read-out against control, counted positive when it falls.

Square brackets hold non-standard residues; d marks the D form. Peptide text beside a SMILES is read from it. 4Pal = N[C@@H](Cc1ccncc1)C(=O)O; Cha = N[C@@H](CC1CCCCC1)C(=O)O; Aib = CC(C)(N)C(=O)O

On to `CC(C)C[C@H](NC(=O)[C@H](CC(N)=O)NC(=O)[C@H](CC1CCCCC1)NC(=O)[C@H](CC1CCCCC1)NC(=O)[C@H](Cc1cnc[nH]1)NC(=O)[C@H](CCCNC(=N)N)NC(=O)[C@H]1CCCN1C(=O)[C@H](CO)NC(=O)C(C)C)C(=O)NC(C)(C)C(=O)N[C@H](C(=O)N[C@@H](CCCNC(=N)N)C(=O)N[C@@H](CCC(N)=O)C(=O)N[C@@H](CCCNC(=N)N)C(=O)N[C@@H](CC1CCCCC1)C(N)=O)[C@@H](C)O`, for which, in [1], the EC50 stood at 0.49 nM. Moreover, the IC50 in [2] came out at 1.3 nM. Also, in the series on Mus musculus [3], the inhibition in vivo at 1 mg/kg/day is 46%.
In the case of `CC(=O)N[C@@H](CO)C(=O)N1CCC[C@@H]1C(=O)N[C@@H](CCCNC(=N)N)C(=O)N[C@@H](Cc1cnc[nH]1)C(=O)N[C@@H](CC1CCCCC1)C(=O)N[C@@H](CC1CCCCC1)C(=O)N[C@@H](CC(N)=O)C(=O)N[C@@H](CC(C)C)C(=O)NC(C)(C)C(=O)N[C@H](C(=O)N[C@@H](CCCNC(=N)N)C(=O)N[C@@H](CCC(N)=O)C(=O)N[C@@H](CCCNC(=N)N)C(=O)N[C@@H](CC1CCCCC1)C(N)=O)[C@@H](C)O` (Ac-S[dP]RH[Cha][Cha]NL[Aib]TRQR[Cha]-NH2), the inhibition in vivo at 1 mg/kg/day in the series on Mus musculus [3] amounted to 33%.
With `CC(C)C[C@H](NC(=O)[C@H](CC(N)=O)NC(=O)[C@H](CC1CCCCC1)NC(=O)[C@H](CC1CCCCC1)NC(=O)[C@H](Cc1cnc[nH]1)NC(=O)[C@H](CCCNC(=N)N)NC(=O)[C@H]1CCCN1C(=O)[C@H](CO)NC(=O)CCC(=O)O)C(=O)NC(C)(C)C(=O)N[C@H](C(=O)N[C@@H](CCCNC(=N)N)C(=O)N[C@@H](CCC(N)=O)C(=O)N[C@@H](CCCNC(=N)N)C(=O)N[C@@H](CC1CCCCC1)C(N)=O)[C@@H](C)O`, the EC50 in series [1] stood at 0.4 nM. For the same compound, in series [2], the 50% inhibitory concentration (IC50) was determined as 2.3 nM. Further, the inhibition in vivo at 1 mg/kg/day in the series with Mus musculus [3] is 103%.
On to `CC(=O)N[C@@H](CO)C(=O)NC(C)(C)C(=O)N[C@@H](CCCNC(=N)N)C(=O)N[C@@H](Cc1ccncc1)C(=O)N[C@@H](CC1CCCCC1)C(=O)NC(C)(C)C(=O)N[C@@H](CC(N)=O)C(=O)N[C@@H](CCCCN)C(=O)NC(C)(C)C(=O)N[C@H](C(=O)N[C@@H](CCCNC(=N)N)C(=O)N[C@@H](CCC(N)=O)C(=O)N[C@@H](CCCNC(=N)N)C(=O)N[C@@H](CC1CCCCC1)C(N)=O)[C@@H](C)O` (Ac-S[Aib]R[4Pal][Cha][Aib]NK[Aib]TRQR[Cha]-NH2), for which the EC50 in series [1] is 0.13 nM. The compound also yielded an IC50 in series [2] of 0.41 nM. In addition, the inhibition in vivo at 0.03 mg/kg/day with Mus musculus [4] was determined as 36%. Moreover, in the series with Mus musculus [5], the inhibition in vivo at 0.1 mg/kg/day came out at 95%.
`CC[C@](C)(NC(=O)[C@H]1CCCN1C(=O)[C@H](CO)NC(C)=O)C(=O)N[C@@H](Cc1cnc[nH]1)C(=O)N[C@@H](CC1CCCCC1)C(=O)N[C@@H](CC1CCCCC1)C(=O)N[C@@H](CC(N)=O)C(=O)N[C@@H](CC(C)C)C(=O)NC(C)(C)C(=O)N[C@H](C(=O)N[C@@H](CCCNC(=N)N)C(=O)N[C@@H](CCC(N)=O)C(=O)N[C@@H](CCCNC(=N)N)C(=O)N[C@@H](CC1CCCCC1)C(N)=O)[C@@H](C)O`: the EC50 in series [1] came to 2 nM. This compound also displayed an IC50 in series [2] of 16 nM. Besides, the inhibition in vivo at 0.3 mg/kg/day in the series on Mus musculus [6] worked out at 2%.
As to `CC[C@@](C)(NC(=O)[C@H](CCCCN)NC(=O)[C@H](CC(N)=O)NC(=O)C(C)(C)NC(=O)[C@H](CC1CCCCC1)NC(=O)[C@H](Cc1ccncc1)NC(=O)[C@H](CCCNC(=N)N)NC(=O)[C@H]1CCCN1C(=O)[C@H](CO)NC(C)=O)C(=O)N[C@H](C(=O)N[C@@H](CCCNC(=N)N)C(=O)N[C@@H](CCC(N)=O)C(=O)N[C@@H](CCCNC(=N)N)C(=O)N[C@@H](CC1CCCCC1)C(N)=O)[C@@H](C)O`, in series [1], the EC50 was found to be 0.11 nM. The compound further displayed an IC50 in [2] of 0.27 nM. Further, in the series on Mus musculus [4], the inhibition in vivo at 0.03 mg/kg/day is 34%. In the series on Mus musculus [5], the inhibition in vivo at 0.1 mg/kg/day turned out to be 86%.
In the case of `CC[C@@](C)(NC(=O)[C@H](CO)NC(C)=O)C(=O)N[C@@H](CCCNC(=N)N)C(=O)N[C@@H](Cc1ccncc1)C(=O)N[C@@H](CC1CCCCC1)C(=O)NC(C)(C)C(=O)N[C@@H](CC(N)=O)C(=O)N[C@@H](CCCCN)C(=O)NC(C)(C)C(=O)N[C@H](C(=O)N[C@@H](CCCNC(=N)N)C(=O)N[C@@H](CCC(N)=O)C(=O)N[C@@H](CCCNC(=N)N)C(=O)N[C@@H](CC1CCCCC1)C(N)=O)[C@@H](C)O`, the EC50 in series [1] was 0.11 nM. For the same compound, the IC50 in [2] turned out to be 0.3 nM. In addition, in the series on Mus musculus [4], the inhibition in vivo at 0.03 mg/kg/day was 25%. Also, in the series with Mus musculus [5], the inhibition in vivo at 0.1 mg/kg/day was 64%.
Regarding `CC[C@](C)(NC(=O)[C@H](CC1CCCCC1)NC(=O)[C@H](Cc1ccncc1)NC(=O)[C@H](CCCNC(=N)N)NC(=O)[C@H]1CCCN1C(=O)[C@H](CO)NC(C)=O)C(=O)N[C@@H](CC(N)=O)C(=O)N[C@@H](CCCCN)C(=O)NC(C)(C)C(=O)N[C@H](C(=O)N[C@@H](CCCNC(=N)N)C(=O)N[C@@H](CCC(N)=O)C(=O)N[C@@H](CCCNC(=N)N)C(=O)N[C@@H](CC1CCCCC1)C(N)=O)[C@@H](C)O`, the EC50 in series [1] was 0.14 nM. Besides, the IC50 in series [2] was found to be 0.16 nM. The results for the inhibition in vivo at 0.3 mg/kg/day in the series with Mus musculus [7] and with Mus musculus [8] were 41% and 23%, respectively. Also, in the series on Mus musculus [4], the inhibition in vivo at 0.03 mg/kg/day was 36%. Besides, in the series with Mus musculus [5], the inhibition in vivo at 0.1 mg/kg/day was 85%.
Take `CC(C)C[C@H](NC(=O)[C@H](CC(N)=O)NC(=O)[C@H](CC1CCCCC1)NC(=O)[C@H](CC1CCCCC1)NC(=O)[C@H](Cc1cnc[nH]1)NC(=O)[C@H](CCCNC(=N)N)NC(=O)[C@H]1CCCN1C(=O)[C@H](CO)NC(=O)c1ccccc1)C(=O)NC(C)(C)C(=O)N[C@H](C(=O)N[C@@H](CCCNC(=N)N)C(=O)N[C@@H](CCC(N)=O)C(=O)N[C@@H](CCCNC(=N)N)C(=O)N[C@@H](CC1CCCCC1)C(N)=O)[C@@H](C)O`: in [1], the concentration for a half-maximal effect (EC50) was found to be 0.8 nM. Further, the IC50 in [2] stood at 1.5 nM. Moreover, the inhibition in vivo at 1 mg/kg/day with Mus musculus [3] was determined as 7%.
As for `CC[C@@](C)(NC(=O)[C@H]1CCCN1C(=O)[C@H](CO)NC(C)=O)C(=O)N[C@@H](Cc1cnc[nH]1)C(=O)N[C@@H](CC1CCCCC1)C(=O)N[C@@H](CC1CCCCC1)C(=O)N[C@@H](CC(N)=O)C(=O)N[C@@H](CC(C)C)C(=O)NC(C)(C)C(=O)N[C@H](C(=O)N[C@@H](CCCNC(=N)N)C(=O)N[C@@H](CCC(N)=O)C(=O)N[C@@H](CCCNC(=N)N)C(=O)N[C@@H](CC1CCCCC1)C(N)=O)[C@@H](C)O`, the EC50 in series [1] turned out to be 0.5 nM. The IC50 in series [2] came to 3.8 nM. The inhibition in vivo at 0.3 mg/kg/day in the series on Mus musculus [6] is 33%.
With `CC(=O)N[C@@H](CO)C(=O)N1CCC[C@@H]1C(=O)N[C@@H](CCCNC(=N)N)C(=O)N[C@@H](Cc1ccncc1)C(=O)N[C@@H](CC1CCCCC1)C(=O)NC(C)(C)C(=O)N[C@@H](CC(N)=O)C(=O)N[C@@H](CCCCN)C(=O)NC(C)(C)C(=O)N[C@H](C(=O)N[C@@H](CCCNC(=N)N)C(=O)N[C@@H](CCC(N)=O)C(=O)N[C@@H](CCCNC(=N)N)C(=O)N[C@@H](CC1CCCCC1)C(N)=O)[C@@H](C)O`, the inhibition in vivo at 0.3 mg/kg/day in the series with Mus musculus [7] was determined as 35%; in the series with Mus musculus [6], 112%; in the series with Mus musculus [8] it was 15%. Moreover, the inhibition in vivo at 0.03 mg/kg/day in the series with Mus musculus [4] amounted to 38%. Moreover, in the series on Mus musculus [9], the concentration was found to be 1060 nM. In the series with Mus musculus [5], the inhibition in vivo at 0.1 mg/kg/day worked out at 80%.
